Experimental data: PubChem BioAssay AID256 (DTP/NCI, 2004)
Where “and” joins values, the source holds several entries; their conditions need not be identical. Equal entries are not always repeated. Toxic doses and inconclusive results are not listed.

System: CD2F1 mice, L1210 leukemia ip, survival T/C
Experiment: NCI In Vivo Anticancer Drug Screen. Data for tumor model L1210 Leukemia (intraperitoneal) in CD2F1 (CDF1) mice
Settings: higher = longer survival
Summary of the method: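 Ratio T/C, where T is the treated-group value and C the vehicle-dosed control value, from mice implanted with a transplantable tumor.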

[1] = endpoint: mean survival time, dose: 100.0 mg/kg/injection, schedule: Q04DX003 (ip), vehicle: saline with Tween-80
[2] = endpoint: mean survival time, dose: 50.0 mg/kg/injection, schedule: Q01DX009 (ip), vehicle: saline
[3] = endpoint: mean survival time, dose: 100.0 mg/kg/injection, schedule: Q01DX009 (ip), vehicle: saline

Compound: COC(=O)C(CSCSCc1ccccc1)NC(=O)C(CSCc1ccccc1)NC(=O)CCNC(=O)OCc1ccccc1 (stereo not drawn)
- T/C (endpoint: mean survival time, dose: 25.0 mg/kg/injection, schedule: Q01DX009 (ip), vehicle: Klucel (hydroxypropylcellulose) (HPC)): 96 % of control
- T/C (endpoint: mean survival time, dose: 50.0 mg/kg/injection, schedule: Q01DX009 (ip), vehicle: Klucel (hydroxypropylcellulose) (HPC)): 93 % of control
- T/C (endpoint: mean survival time, dose: 100.0 mg/kg/injection, schedule: Q01DX009 (ip), vehicle: Klucel (hydroxypropylcellulose) (HPC)): 88 % of control
- T/C (endpoint: mean survival time, dose: 200.0 mg/kg/injection, schedule: Q01DX009 (ip), vehicle: Klucel (hydroxypropylcellulose) (HPC)): 93 % of control
- T/C (endpoint: mean survival time, dose: 400.0 mg/kg/injection, schedule: Q01DX009 (ip), vehicle: Klucel (hydroxypropylcellulose) (HPC)): 90 % of control

Compound: O=C(CCOP(=O)(NCCCl)NCCCl)c1ccccc1
- T/C (endpoint: median survival time, dose: 62.5 mg/kg/injection, schedule: Q01DX001 (ip), vehicle: saline with Tween-80): 117 % of control
- T/C (endpoint: median survival time, dose: 125.0 mg/kg/injection, schedule: Q01DX001 (ip), vehicle: saline with Tween-80): 166 % of control
- T/C (endpoint: median survival time, dose: 250.0 mg/kg/injection, schedule: Q01DX001 (ip), vehicle: saline with Tween-80): 165 % of control and 229 % of control
- T/C (endpoint: median survival time, dose: 500.0 mg/kg/injection, schedule: Q01DX001 (ip), vehicle: saline with Tween-80): 291 % of control

Compound: O=C(OCC1OC(n2cc(C(F)(F)F)c(=O)[nH]c2=O)CC1OC(=O)c1ccc([N+](=O)[O-])cc1)c1ccc([N+](=O)[O-])cc1 (stereo not drawn)
- T/C (endpoint: median survival time, dose: 25.0 mg/kg/injection, schedule: Q01DX009 (ip), vehicle: Klucel (hydroxypropylcellulose) (HPC)): 116 % of control
- T/C (endpoint: median survival time, dose: 50.0 mg/kg/injection, schedule: Q01DX009 (ip), vehicle: Klucel (hydroxypropylcellulose) (HPC)): 113 % of control

Compound: CC12CCC3C4CCC(=O)C(O)=C4CCC3C1CCC2OC(=O)CCC1CCCC1 (stereo not drawn)
- T/C (endpoint: mean survival time, dose: 100.0 mg/kg/injection, schedule: Q04DX003 (sc), vehicle: steriod suspending solution): 101 % of control
- T/C (endpoint: mean survival time, dose: 200.0 mg/kg/injection, schedule: Q04DX003 (sc), vehicle: steriod suspending solution): 104 % of control
- T/C (endpoint: mean survival time, dose: 400.0 mg/kg/injection, schedule: Q04DX003 (sc), vehicle: steriod suspending solution): 104 % of control

Compound: Cc1ccc(N2CC=C(c3ccccc3)OP2(=O)N(CCCl)CCCl)cc1 (stereo not drawn)
- T/C (endpoint: mean survival time, dose: 31.25 mg/kg/injection, schedule: Q01DX001 (ip), vehicle: saline): 100 % of control
- T/C (endpoint: mean survival time, dose: 62.5 mg/kg/injection, schedule: Q01DX001 (ip), vehicle: saline): 102 % of control
- T/C (endpoint: mean survival time, dose: 125.0 mg/kg/injection, schedule: Q01DX001 (ip), vehicle: saline): 100 % of control
- T/C (endpoint: mean survival time, dose: 250.0 mg/kg/injection, schedule: Q01DX001 (ip), vehicle: saline): 100 % of control
- T/C (endpoint: mean survival time, dose: 500.0 mg/kg/injection, schedule: Q01DX001 (ip), vehicle: saline): 100 % of control

Compound: CCCCC/C(C)=C(\C)c1cc(OC)cc(OC)c1
- T/C (endpoint: mean survival time, dose: 100.0 mg/kg/injection, schedule: Q01DX009 (ip), vehicle: saline with Tween-80): 103 % of control
- T/C (endpoint: mean survival time, dose: 200.0 mg/kg/injection, schedule: Q01DX009 (ip), vehicle: saline with Tween-80): 106 % of control
- T/C (endpoint: mean survival time, dose: 400.0 mg/kg/injection, schedule: Q01DX009 (ip), vehicle: saline with Tween-80): 91 % of control

Compound: CN(C)C=NC1(c2ccccc2)CCCCC1
- T/C (endpoint: mean survival time, dose: 25.0 mg/kg/injection, schedule: Q04DX003 (ip), vehicle: saline with Tween-80): 97 % of control
- T/C (endpoint: mean survival time, dose: 50.0 mg/kg/injection, schedule: Q04DX003 (ip), vehicle: saline with Tween-80): 92 % of control
- T/C [1]: 91 % of control and 97 % of control

Compound: c1ccc2c(c1)-c1ccccc1C1NC21 (stereo not drawn)
- T/C (endpoint: median survival time, dose: 6.25 mg/kg/injection, schedule: Q01DX009 (ip), vehicle: saline with Tween-80): 112 % of control
- T/C (endpoint: median survival time, dose: 12.5 mg/kg/injection, schedule: Q01DX009 (ip), vehicle: saline with Tween-80): 108 % of control
- T/C (endpoint: median survival time, dose: 25.0 mg/kg/injection, schedule: Q01DX009 (ip), vehicle: saline with Tween-80): 120 % of control

Compound: C[n+]1cccc(CCc2ccc[n+](C)c2)c1
- T/C [2]: 92 % of control
- T/C [3]: 104 % of control

Compound: CC1=C(CCC#N)C(=O)C(CCC#N)C(C)(C)C1 (stereo not drawn)
- T/C (endpoint: mean survival time, dose: 100.0 mg/kg/injection, schedule: Q04DX002 (ip), vehicle: saline with Tween-80): 94 % of control
- T/C (endpoint: mean survival time, dose: 200.0 mg/kg/injection, schedule: Q04DX002 (ip), vehicle: saline with Tween-80): 89 % of control

Compound: CCC(C)(CC)OC(=O)c1ccc([N+](=O)[O-])cc1
- T/C (endpoint: mean survival time, dose: 100.0 mg/kg/injection, schedule: Q01DX001 (ip), vehicle: saline): 100 % of control
- T/C (endpoint: mean survival time, dose: 200.0 mg/kg/injection, schedule: Q01DX001 (ip), vehicle: saline): 98 % of control
- T/C (endpoint: mean survival time, dose: 400.0 mg/kg/injection, schedule: Q01DX001 (ip), vehicle: saline): 98 % of control

Compound: C[Si](C)(C)O/C=C1/CCOC1=O
- T/C (endpoint: mean survival time, dose: 12.5 mg/kg/injection, schedule: Q01DX009 (ip), vehicle: saline): 97 % of control and 107 % of control
- T/C (endpoint: mean survival time, dose: 25.0 mg/kg/injection, schedule: Q01DX009 (ip), vehicle: saline): 106 % of control and 108 % of control
- T/C [2]: 103 % of control and 104 % of control
- T/C [3]: 104 % of control and 106 % of control
- T/C (endpoint: mean survival time, dose: 200.0 mg/kg/injection, schedule: Q01DX009 (ip), vehicle: saline): 105 % of control and 112 % of control
- T/C (endpoint: mean survival time, dose: 400.0 mg/kg/injection, schedule: Q01DX009 (ip), vehicle: saline): 113 % of control and 112 % of control

Compound: CCOCCNCc1ccc(Cl)cc1Cl
- T/C [1]: 91 % of control
- T/C (endpoint: mean survival time, dose: 200.0 mg/kg/injection, schedule: Q04DX003 (ip), vehicle: saline with Tween-80): 94 % of control
